Data on 14 compounds can be found in article PMC6009948, “Design and synthesis of benzopyran-based inhibitors of the hypoxia-inducible factor-1 pathway with improved water solubility” (Journal of Enzyme Inhibition and Medicinal Chemistry, 2017).

≈ marks a conversion by molar mass, not a printed value. Where two headings read alike, the source gives them in different places.

Data set [1] deals with hypoxia-induced HIF transcriptional activity. The data set can be described thus: HRE-luciferase reporter assay in LN229-HRE-luciferase glioma cells. The format is cell-based. The conditions noted are these: read-out: IC50, HRE-luciferase reporter inhibitory activity. Here is the method: These analogs were first evaluated for their ability to inhibit hypoxia-induced HIF transcriptional activity in LN229-HRE-luciferase glioma cells as described previously. Their inhibitory activities are presented as IC50 in Table 1.
All the analogs were assessed for their ability to inhibit the HIF-1 pathway using a luciferase reporter assay described previously. This assay reports the ability for a compound to inhibit HIF transcriptional activity. […] The same is true if the morpholino unit is directly attached to the sulfonyl group (6). In the two series of compounds (3, 4) with a substituted phenyl group replacing the benzopyran ring in 1, only introduction of the morpholino moiety at the para positions (3) allowed for the preservation of HIF inhibition activity.
Background: In a reporter assay the amount or activity of a reporter protein is the signal.

Data set [2] is described as follows: Solubility by dynamic light scattering (particle aggregation). The conditions noted are these: DLS; for Concentration of particle appearance in PBS: PBS with 1% DMSO, rested 1 h; for Concentration of particle appearance in water: de-ionised water with 1% DMSO, room temperature, rested 24 h. The format is physicochemical. Here is the method: To further investigate the true enhancement of solubility, particle aggregation was examined using dynamic light scattering (DLS). Selected compounds were treated according to the following procedure: • All centrifuge tubes and cuvettes were rinsed with either DCM or water and then vacuum dried before use to remove dust and any particulates. • Stock solutions (10 mM) of each compound of interest were prepared in filtered DMSO. • Six dilutions (0, 10, 20, 30, 50, and 100 µM) were prepared in filtered de-ionised water with 1% DMSO and allowed to rest at room temperature for 24 h after vortex. • DLS analysis was performed for each concentration on the Brookhaven Instrument Corporation, NanoBrook 90Plus Particle Size Analyzer, Version 5.20 (Holtsville, NY). • Additional experiments were performed at specific concentrations for each compound as follows: 0, 1, 3, 10, and 20 µM concentrations of 1; 0, 10, 12, and 20 µM of 2; 0, 5, 7, and 10 µM of 3a; and 0, 10, 20, 30, and 50 µM concentrations of 4a. • Additional experiments were repeated in filtered PBS* with 1% DMSO as follows: 0, 0.5, 1, 2, 3, and 5 µM concentrations of 1; 0, 5, 7, 10, 12, and 15 µM of 2; 0, 10, 12, 15, and 20 µM of 3a; and 0, 10, 20, 30, and 50 µM concentrations of 4a.
*Experiments in PBS were carried out the same way as the experiments in water except DMSO stock solutions were made at 5 mM and the PBS diluted samples rested for 1 h before particle analysis.
To investigate the true enhancement of aqueous solubility, particle aggregation was examined using DLS. DLS can detect particle sizes in solution by measuring changes in scattered light in relation to the Brownian motion of particles. It is commonly used to detect the particle sizes of various chemical and biological molecules, including small molecule inhibitors. Though there are several methods for detecting solubility, we chose the DLS method due to its ease, reproducibility, minimal sample requirement, and relative sensitivity to small particles.
The active compounds 3a and 4a were compared to their non-morpholine containing counterparts, 1 and 2, respectively (Figure 3). Solutions of varying concentrations of each compound were made in either water or PBS with 1% DMSO. […] DLS measurements, summarised in Table 2, reveal that 3a forms aggregates at approximately 10 µM, an order of magnitude higher than 1, which is insoluble at just 1 µM in water.

Data set [3] has as its system hypoxia-induced HIF transcriptional activity. The conditions noted are these: cited from earlier work.
On the set-up of data set [4]: method as in earlier work. The conditions noted are these: cited from earlier work.
In data set [5] the test system is brain, and pancreatic cancers. Also noted: method as in earlier work. The conditions noted are these: cited from earlier work.
Details of data set [6]: method as in earlier work. The conditions noted are these: daily treatments with 60 mg/kg for up to 12 weeks; cited from earlier work.
Details of data set [7]: method as in earlier work. The conditions noted are these: cited from earlier work. This is another data set of the same source.

Consider `COc1ccc(S(=O)(=O)N(CCCN2CCOCC2)Cc2ccc3c(c2)C=CC(C)(C)O3)cc1OC` [Compound 5b, N-((2,2-Dimethyl-2H-chromen-6-yl)methyl)-3,4-dimethoxy-N-(3-morpholinopropyl)benzenesulfonamide], for which the IC50 (usually the concentration needed to halve the response being measured) in data set [1] (Glioma cell) was over 5 µM.
On the same count and under the same terms, as for `COc1ccc(S(=O)(=O)N(CCN2CCOCC2)Cc2ccc3c(c2)C=CC(C)(C)O3)cc1OC` [Compound 5a, N-((2,2-Dimethyl-2H-chromen-6-yl)methyl)-3,4-dimethoxy-N-(2-morpholinoethyl)benzenesulfonamide], the figure is over 5 µM.
On to `COc1ccc(S(=O)(=O)N(Cc2ccc3c(c2)C=CC(C)(C)O3)c2ccccc2)cc1OC` [Compound 1, N-((2,2-dimethyl-2H-chromen-6-yl)methyl)-3,4-dimethoxy-N-phenylbenzenesulfonamide], for which, in data set [2], the “Concentration of particle appearance in PBS” value (from here on “Concentration … in PBS”) came out at 1 µM and the “Concentration of particle appearance in water” value (“Concentration … in water” for short) came out at 1 µM. In addition, the IC50 in data set [3] (lead compound 1 (KCN1), read-out: IC50, HIF-dependent bioassay (HRE-luciferase reporter)) is about 0.6 µM. Further, in data set [4], the solubility in water is 9 ng/mL (≈ 0.0193 µM). Further, the “in vivo inhibitory activity against brain, and pancreatic cancers” value in data set [5] is “very pronounced inhibitory activity”. Further, in data set [6], the “tolerability / side effects in mice” value is “minimal side effects”. In addition, the cytotoxicity entry in data set [7] was “Neither did 1 nor its analogs demonstrate cytotoxicity”.
Regarding “3,4-Dimethoxy-N-(2-(morpholinomethyl)benzyl)-N-phenylbenzenesulfonamide [Compound 3c]”, the half-inhibitory concentration (IC50) in data set [1] was over 5 µM.
For the compound `COc1ccc(S(=O)(=O)N(Cc2ccc(CN3CCOCC3)cc2)c2ccccc2)cc1OC` [Compound 3a, 3,4-Dimethoxy-N-(4-(morpholinomethyl)benzyl)-N-phenylbenzenesulfonamide], in data set [1] (Glioma cell), the IC50 is 0.9 µM. Further, in data set [2], the “Concentration … in PBS” value was determined as 15 µM.
As for `COc1ccc(S(=O)(=O)N(Cc2cccc(CN3CCOCC3)c2)C2CCC2)cc1OC` [Compound 4b, N-Cyclobutyl-3,4-dimethoxy-N-(3-(morpholinomethyl)benzyl)benzenesulfonamide], the IC50 in data set [1] (Glioma cell) was over 5 µM.
Take `COc1ccc(S(=O)(=O)N(Cc2ccc(N3CCOCC3)cc2)c2ccccc2)cc1OC` [Compound 3d, 3,4-Dimethoxy-N-(4-morpholinobenzyl)-N-phenylbenzenesulfonamide]: the IC50 in data set [1] (Glioma cell) worked out at 3.8 µM.
With `COc1ccc(S(=O)(=O)N(Cc2cccc(CN3CCOCC3)c2)c2ccccc2)cc1OC` [Compound 3b, 3,4-Dimethoxy-N-(3-(morpholinomethyl)benzyl)-N-phenylbenzenesulfonamide], in data set [1] (Glioma cell), the IC50 is over 5 µM.
As to `COc1ccc(S(=O)(=O)N(Cc2ccc3c(n2)C=CC(C)(C)O3)C2CCC2)cc1OC` [Compound 2, N-cyclobutyl-N-((2,2-dimethyl-2H-pyrano[3,2-b]pyridin-6-yl)methyl)-3,4-dimethoxybenzenesulfonamide], in data set [2], the “Concentration … in PBS” value amounted to 10 µM and the “Concentration … in water” value is 10 µM. Besides, in data set [3] (lead compound 2 (64b), read-out: IC50, HRE-luciferase reporter inhibitory activity), the IC50 is about 0.3 µM.
For “N-Cyclobutyl-3,4-dimethoxy-N-(2-(morpholinomethyl)benzyl)benzenesulfonamide [Compound 4c]”, in data set [1], the IC50 is over 5 µM.
For `COc1ccc(S(=O)(=O)N(Cc2ccc(CN3CCOCC3)cc2)C2CCC2)cc1OC` [Compound 4a, N-Cyclobutyl-3,4-dimethoxy-N-(4-(morpholinomethyl)benzyl)benzenesulfonamide], the IC50 in data set [1] (Glioma cell) worked out at 1 µM. In addition, the “Concentration … in water” value in data set [2] was over 100 µM.
For `CC1(C)C=Cc2cc(CN(c3ccccc3)S(=O)(=O)N3CCOCC3)ccc2O1` [Compound 6a, N-((2,2-Dimethyl-2H-chromen-6-yl)methyl)-N-phenylmorpholine-4-sulfonamide], in data set [1] (Glioma cell), the IC50 is over 5 µM.
On the same count and under the same terms, as for `COc1ccc(S(=O)(=O)N(Cc2ccc(N3CCOCC3)cc2)C2CCC2)cc1OC` [Compound 4d, N-Cyclobutyl-3,4-dimethoxy-N-(4-morpholinobenzyl)benzenesulfonamide], the figure is about 2.6 µM.
Consider `CC1(C)C=Cc2cc(CN(C3CCC3)S(=O)(=O)N3CCOCC3)ccc2O1` [Compound 6b, N-Cyclobutyl-N-((2,2-dimethyl-2H-chromen-6-yl)methyl)morpholine-4-sulfonamide], for which the IC50 in data set [1] (Glioma cell) is over 5 µM.
